According to US20100303903A1, “METHODS OF ENHANCING SELECTIVE SEROTONIN REUPTAKE INHIBITOR EFFECTS IN MAMMALS” (SHIRE LLC, priority 2009, published 2010):

How the values were obtained:
[1] = system: mouse; assay: Behavioural despair test in the mouse (forced swim; duration of immobility and latency to immobility); format: in vivo, Male Rj: NMRI mice; details: for DURATION OF IMMOBILITY % change / LATENCY % change: (a) compared with vehicle control
Method: Male Rj: NMRI mice (Elevage Janvier, 53940 Le Genest-Saint-Isle, France) having a body weight of between 22 and 29 g were used in the study. The mice were stabilised for 5 days prior to assessment with free access to food and water. […] […] The control vehicle was distilled water. The substances were evaluated in comparison with the control vehicle and were administered dissolved in distilled water.
The method, which detects antidepressant activity, follows that described by Porsolt et al (Arch. Int. Pharmacodyn., 1977, 229, 327-336). Mice forced to swim in a situation from which they cannot escape rapidly become immobile. Antidepressants decrease the duration of immobility.
Mice were individually placed in a cylinder (height=24 cm; diameter=13 cm) containing 10 cm water (22° C.) from which they cannot escape. The mice were placed in the water for 6 minutes and the duration of immobility during the last 4 minutes was measured. The latency to the first bout of immobility was also recorded.
10 mice were studied per group. The test was performed blind.
L-lysine-d-amphetamine (Vyvanse) (8, 16 and 32 mg/kg) was administered 90 minutes before the test, alone or in combination and compared with a vehicle control group.
Imipramine (128 mg/kg p.o.), administered under the same experimental conditions, was used as a reference substance.
Data were analysed by comparing treated groups with vehicle control using unpaired Student's t tests. In addition, groups treated with combinations of substances were compared with groups administered appropriate substances alone using unpaired Student's t tests.
The mouse behavioural despair test is based on the observation that mice, when forced to swim in a situation from which there is no escape, after an initial period of vigorous activity will eventually cease to move altogether making only those movements necessary to keep the head above the water. This behavioural immobility is thought to indicate a state of despair in which the mice have learned that escape is impossible and have resigned themselves to the experimental conditions. This immobility is reduced by anti-depression treatments.

[2] = system: mice; assay: Light-dark box test of anxiety; format: in vivo; details: 16 and 32 mg/kg, alone
From the text: The light/dark test is based on the innate aversion of rodents to brightly/illuminated areas and on the spontaneous exploratory behaviour of rodents in response to mild stress, that is, novel environment and light. The test apparatus consists of a compartment box divided between a dark safe compartment and an illuminated aversive compartment.

[3] = Table 2, 128 mg/kg p.o. -60 min
[4] = Table 3, 128 mg/kg p.o. -90 min

CN(C)CCCN1c2ccccc2CCc2ccccc21 [Imipramine]
DURATION OF IMMOBILITY mean ± s.e.m. [1, 3]: 70.4 ± 21.4 s
LATENCY mean ± s.e.m. [1, 3]: 243.6 ± 32.7 s
DURATION OF IMMOBILITY % change [1, 3]: −67%
LATENCY % change [1, 3]: +277%
DURATION OF IMMOBILITY mean ± s.e.m. [1, 4]: 100.6 ± 23.5 s
DURATION OF IMMOBILITY % change [1, 4]: −48%

CN[C@H]1CC[C@@H](c2ccc(Cl)c(Cl)c2)c2ccccc21 [Sertraline, sertraline]
DURATION OF IMMOBILITY mean ± s.e.m. ([1]; Table 3, 16 mg/kg p.o. -90 min): 162.7 ± 27.5 s
DURATION OF IMMOBILITY % change ([1]; Table 3, 16 mg/kg p.o. -90 min): −16%

C[C@@H](Cc1ccccc1)NC(=O)[C@@H](N)CCCCN [Vyvanse, N-[(1S)-1-methyl-2-phenylethyl]-L-lysinamide]
antidepressant-like activity ([1]; 16 and 32 mg/kg, alone): presence of antidepressant-like activity
DURATION OF IMMOBILITY mean ± s.e.m. ([1]; Table 2, 16 mg/kg p.o. -60 min): 173.6 ± 18.8 s
LATENCY mean ± s.e.m. ([1]; Table 2, 16 mg/kg p.o. -60 min): 100.0 ± 21.3 s
DURATION OF IMMOBILITY % change ([1]; Table 2, 16 mg/kg p.o. -60 min): −19%
LATENCY % change ([1]; Table 2, 16 mg/kg p.o. -60 min): +55%
DURATION OF IMMOBILITY mean ± s.e.m. ([1]; Table 2, 32 mg/kg p.o. -60 min): 160.3 ± 22.6 s
LATENCY mean ± s.e.m. ([1]; Table 2, 32 mg/kg p.o. -60 min): 104.3 ± 18.2 s
DURATION OF IMMOBILITY % change ([1]; Table 2, 32 mg/kg p.o. -60 min): −25%
LATENCY % change ([1]; Table 2, 32 mg/kg p.o. -60 min): +61%
DURATION OF IMMOBILITY mean ± s.e.m. ([1]; Table 3, 8 mg/kg p.o. -90 min): 208.0 ± 7.3 s
DURATION OF IMMOBILITY % change ([1]; Table 3, 8 mg/kg p.o. -90 min): +7%
DURATION OF IMMOBILITY mean ± s.e.m. ([1]; Table 3, 16 mg/kg p.o. -90 min): 176.8 ± 14.8 s
DURATION OF IMMOBILITY % change ([1]; Table 3, 16 mg/kg p.o. -90 min): −9%
DURATION OF IMMOBILITY mean ± s.e.m. ([1]; Table 3, 32 mg/kg p.o. -90 min): 123.1 ± 20.8 s
DURATION OF IMMOBILITY % change ([1]; Table 3, 32 mg/kg p.o. -90 min): −37%
anxiogenic activity [2]: absence of any anxiogenic activity
